Experimental data: US20220000765A1, “METHODS AND COMPOSITION FOR TREATING MICROBIAL INFECTIONS” (UNIVERSITY OF LOUISVILLE RESEARCH FOUNDATION, INC., priority 2018, published 2022)
Like-named read-outs stand apart in the source and are kept apart here.

Legend:
[1] = test system: HIV-1; details: for interaction with Q-GRFT against HIV-1: in free and encapsulated forms
[2] = Met78Gln variant versus wild-type GRFT; cited from earlier work
[3] = test system: HIV-1; details: eluates of 1% w/w GRFT fibers
Description: TZM-bl cells, obtained from the National Institutes of Health (NIH) AIDS Research and Reference Reagent Program (ARRRP), were used to assess in vitro HIV-1 infectivity. TZM-bl cells are engineered HeLa cells that express CD4, CCR5 and CXCR4 receptors and contain a Tat-driven luciferase gene, which is activated by HIV-1 infection and permits sensitive and accurate measurements of infection. TZM-bl cells are highly permissive to infection by most strains of HIV and molecularly cloned Env-pseudotyped viruses. TZM-bl cells were cultured in DMEM containing 10% FBS, 25 mM HEPES, and 50 μg/mL gentamicin. […]
The antiviral activity of GRFT fibers against HIV-1 was measured using an in vitro HIV-1 pseudovirus inhibition assay. As previously described, HIV-1 inhibition was determined as a function of reduction in luciferase reporter gene expression after a single round of infection in TZM-bl cells. The optimal virus dilution was established prior to the experiments to yield 100,000 relative luminescence units (RLUs). […]
After 48 hr, 100 μL, culture medium was carefully removed from each well. Luminescence was measured using the Bright-Glo luciferase assay system (Promega Corporation, Madison, Wis.) by adding 100 μL, Bright-Glo reagent solution to each well for 5 min. Plates were read via luminescence by the Synergy HT reader (BioTek). […]

[4] = test system: HSV-2; experiment: In vivo HSV-2 efficacy, murine model of lethal HSV-2 infection (GRFT NPs and NP-EFs, Example 4); set-up: species or system BALB/c mice
Procedure: All in vivo experiments were approved by the University of Louisville's Institutional Animal Care and Use Committee (IACUC-17135) prior to testing. […] For these studies, mice were subcutaneously injected with 3 mg Depo-Provera (Revive, Madison, N.J.) 5 days prior to vehicle administration to induce the diestrous stage of their cycle. All materials administered to mice were UV-sterilized for 15 s prior to use. […] Untreated/uninfected mice and mice treated with 20 μg free GRFT (20 μL of 1,000 μg/mL) served as negative controls of infection, while untreated/infected mice served as a positive control for infection. Blank mPEG-PLGA nanoparticles were administered as an additional control group in efficacy studies.

[5] = test system: HSV-2; experiment: In vitro HSV-2 plaque assay in Vero E6 cells (GRFT fibers, Example 5); assay type: cell-based, HSV-2 (4674); details: eluates of 10% w/w GRFT fibers; 1 hr prior to infection
Procedure: To conduct HSV-2 plaque assays, Vero E6 cells and HSV-2 (4674) were kindly provided by Dr. Kenneth Palmer from the University of Louisville.
HSV-2 plaque assays were conducted to evaluate the in vitro efficacy of 10% w/w GRFT fibers against HSV-2 infection as previously described. Briefly, Vero E6 cells were seeded at 600,000 cells/well in a 6-well flat bottom plate (50% confluence) and grown for 24 hr to confluence. Prior to cell infection, 10% w/w GRFT fibers (30 mg) were dissolved in 20 mL complete plating media (1% FBS MEM). Once the cells were fully confluent, the growth media was removed and replaced with 2 mL of GRFT fiber eluate dilutions, followed by HSV-2 infection (3,000 PFU per well) 1 hr later. Free GRFT (2,000 μg/mL), corresponding to the concentration necessary to provide complete HSV-2 inhibition, was used as a positive control for inhibition, in addition to untreated/uninfected cells. Untreated/infected cells, were used as a negative control of inhibition.
Subsequent to HSV-2 infection, plates were incubated for 48 hr at 37° C., all media was removed, and cells were fixed with 1.5 mL methanol for 10 min. […] Finally, plates were washed with Milli-Q water, and plaques were counted after drying. […] Samples were analyzed in triplicate, and GraphPad Prism software was used to determine and compare the IC50 values of GRFT fibers to free GRFT.

[6] = test system: HSV-2; experiment: In vivo efficacy against a lethal dose of HSV-2 infection (GRFT fibers, Example 5); set-up: species or system BALB/c mice
Procedure: All in vivo experimental procedures were approved by the University of Louisville's Institutional Animal Care and Use Committee (IACUC 17135) prior to testing. All animal studies were conducted using 5-week-old female BALB/c mice (Jackson Laboratory, Bar Harbor, Me.) to evaluate the efficacy and safety of GRFT fibers. For efficacy studies, mice were administered either blank or GRFT fibers (5 mg) that were UV-sterilized for 15 s. Mice were subcutaneously injected with 3 mg Depo-Provera (Revive, Madison, N.J.) to induce the diestrous stage of their cycle, 5 days prior to fiber administration.
To determine the efficacy of GRFT fibers against HSV-2 infection, mice were administered a single dose of either GRFT PEO, PVA, or PVP fibers, or control groups (n=20). Twenty-four hours after fiber administration, mice were challenged with HSV-2 (20 μL, LD90 5,000 PFU). Untreated/infected mice were used as positive controls for infection, while untreated/uninfected mice and infected mice treated with free GRFT (20 μL, of 1,000 μg/mL, 20 μg GRFT) served as negative controls. […] Blank PEO fibers were administered as an additional control group in efficacy studies. Mice were monitored daily for 14 days after HSV-2 challenge using an established 4-point scale to monitor the progression of viral infection. Each day, mice were weighed and examined for signs of neurological and epithelial damage. […]

[7] = test system: HIV-1; details: NPs or eluates from 20% w/w NP-EF composites
Procedure: TZM-bl cells, obtained from the National Institutes of Health AIDS Research and Reference Reagent Program (ARRRP), are engineered HeLa cells that express CD4, CCR5 and CXCR4 receptors, and were used to assess in vitro HIV-1 infectivity. TZM-bl cells are highly permissive to infection by most HIV-1 and pseudovirus strains, and contain HIV-activated Tat-driven luciferase, allowing for precise quantification of infection. TZM-bl cells were cultured in Dulbecco's Modified Eagle medium (DMEM) containing 10% fetal bovine serum (FBS), 25 mM HEPES, and 50 μg/mL gentamicin (Thermo Fisher). […]
HIV inhibition was determined as a function of reduction in luciferase reporter gene expression after a single round of infection with pseudotyped HIV in TZM-bl cells. The optimal virus dilution (1:16) was established to yield ≥96,800 relative luminescence units (RLUs). […]
After 48 hr, 100 μL of culture medium was removed from each well. Luminescence was measured using the Bright-Glo luciferase assay (Promega Corporation, Madison, Wis.) by adding 100 μL Bright-Glo reagent solution to each well for 5 min and recording relative luminescence units (RLUs, Synergy HT reader, BioTek). […]

[8] = test system: Gardnerella vaginalis; experiment: Probiotic - Gv liquid co-culture; assay type: cell-based; details: Example 2; free probiotic (10e7 or 10e8), prebiotic and Gv; plated after 4 and 24 hours
Procedure: Bacteria loading, viability, and stability were tested by CFU count, BacLight live/dead assay, and fluorescence microscopy. La viability and stability were evaluated at −20° C., 4° C., and 25° C. by counting colony forming units (CFUs). To determine the ability of probiotic EFs to decrease Gv viability, a La EF-Gv co-culture was assessed.
Bacteria were co-cultured in media using the following experimental design (FIG. 16A). The probiotic (L. acidophilus (La) or L. crispatus (Lcr)), the prebiotic, and the Gv were combined for bacterial cell co-culture experiments. Each tube was serially diluted and plated after 4 (FIG. 16B) and 24 (FIG. 16C) hours growth.

Compound: free Q-GRFT: oxidation-resistant variant of GRFT in which the Met at position 78 was replaced by a Gln
- fold lowering of IC50 of free Q-GRFT ([1]; in combination with the free ARVs (TFV, RAL, DAP)): up to 6 fold
- susceptibility to oxidation [2]: no susceptibility to oxidation

Compound: C[C@H](Cn1cnc2c(N)ncnc21)OCP(=O)(O)O [TFV, Tenofovir]
- interaction with Q-GRFT against HIV-1 [1]: synergistic interactions

Compound: Griffithsin [free GRFT]
- 1 Hr HIV-1 IC50 ([3]; 1 hr prior to infection): 24.1 ± 15.6 ng/mL
- 24 Hr HIV-1 IC50 ([3]; 24 hr prior to infection): 22.8 ± 12.2 ng/mL
- survivability ([4]; intravaginal, single HSV-2 challenge LD90 5,000 PFU 24 hr later, 14 d post-infection, n=20): 85%
- onset of symptoms and progression of infection ([4]; treated mice that became symptomatic, relative to untreated/infected control group): delayed onset of symptoms and a more gradual progression of infection
- 1 Hr HSV-2 IC50 [5]: 25.5 ± 0.5 µg/mL
- progression of infection ([6]; mice that exhibited symptoms, relative to untreated/infected mice): decreased progression of infection
- infected mice whose initial symptoms disappeared near the end of the study ([6]; of 20 mice): 1 of 20
- IC50 against HIV-1 ([7]; administered to TZM-bl cells 1 hr prior to infection): 21.5 ± 5.3 ng/mL
- IC50 against HIV-1 ([7]; administered to TZM-bl cells 24 hr prior to infection): 20.8 ± 6.7 ng/mL

Compound: Cc1cc(C)c(Nc2ccnc(Nc3ccc(C#N)cc3)n2)c(C)c1 [DAP, Dapivirine]
- interaction with Q-GRFT against HIV-1 [1]: synergistic interactions

Compound: Cc1nnc(C(=O)NC(C)(C)c2nc(C(=O)NCc3ccc(F)cc3)c(O)c(=O)n2C)o1 [RAL, Raltegravir]
- interaction with Q-GRFT against HIV-1 [1]: synergistic interactions

Compound: inulin
- effect on Gv growth in probiotic-prebiotic-Gv co-culture [8]: increase of Gv growth
